Test results from patent US9937194B1, “Compounds and methods for treating inflammatory diseases” (priority 2009, dated 2018).
≈ marks a conversion by molar mass, not a printed value.

Legend:
HDAC activity = assay: H2O2-induced reduction of HDAC activity in PMA-differentiated U937 cells; type: cell-based, human; conditions: for restoration of H2O2-reduced HDAC activity (%): test concentration not given, bracketed second value not explained
Experimental: In cell HDAC assay. Cells are incubated with Fluor de Lys™ substrate for 1 hr before lyses. Total HDAC activity from whole cell extracts is measured using the HDAC Fluorimetric Assay/Drug Discovery Kit (BIOMOL® International, Inc., Plymouth Meeting, Pa.).
HDAC expression: In cell HDAC activity assay: U937 is differentiated to macrophage type cells by PMA for 3 days. HDAC fluorescent substrate (Biomol) is added before exposure of oxidative stress (H2O2, 200 μM) or Tobacco smoke conditioned medium for 4 hrs. HDAC activity is measured (Biomol kit). Compounds at different concentrations are treated 20 min before oxidative stress treatment.
PMA-differentiated macrophage-like cells are pretreated with compounds described herein for 20 min. After H2O2 (200 μM) stimulation for 4 hrs, HDAC activity is assayed. Data are expressed as fold changes against positive control treated with H2O2 only. Values represent means of four experiments±SEM.

IL-8 = assay: LPS-induced IL-8 release in PMA-differentiated U937 cells (ELISA); type: cell-based, human; conditions: for IL-8 inhibition (%): test concentration not given
Experimental: (§1) Cytokine ELISA. LPS-induced IL-8, TNFα concentrations and TNFα-induced IL-8 concentrations are determined by sandwich ELISA according to the manufacturer's instructions (R&D Systems Europe). IC50 values for dexamethasone on IL-8 production are calculated using the computer program Prism 4.0 (GraphPad Software Inc., San Diego, Calif.) as a marker for steroid sensitivity.
(§2) Effects of compounds on LPS-induced IL-8 and TNFα release in PMA-differentiated U937 cells. PMA-differentiated macrophage-like cells are pretreated with compounds described herein for 1 hr, followed by LPS (100 ng/ml) stimulation for 4 hrs. LPS-induced IL-8 and TNFα release is evaluated by ELISA. Values represent means of three experiments±SEM.

TNFα = assay: LPS-induced TNFα release in PMA-differentiated U937 cells (ELISA); type: cell-based, human; conditions: for TNFα inhibition (%): test concentration not given
Experimental: as §1, §2

MMP9 = assay: PMA-induced MMP9 expression in U937 cells (gelatin zymography); type: cell-based, human; conditions: test concentration not given; bracketed second value not explained
Experimental: Zymography. MMP9 enzyme activity is measured by gelatin zymography. 5 μl of supernatants were diluted with 5 μl Laemli sample buffer (Bio-Rad) and are loaded on a Novex® 10% Zymogram (Gelatin) gel (Invitrogen). After electrophoresis (90 min, 125 V, 35 mA, 5 W) gels are incubated with 1× Novex® zymogram renaturing buffer (Invitrogen) for 30 min at room temperature with gentle agitation. Gels are then rinsed in 1× Novex® zymogram developing buffer (Invitrogen) for 30 min at room temperature with gentle agitation prior to overnight incubation in the developing buffer at 37° C. After incubation the gels are stained using the colloidal blue staining kit (Invitrogen) with buffer containing 20% methanol and 70% distilled water to visualize the zymogen bands. Relevant band intensities are quantified by densitometric analysis using the UVP GelDoc-It system.
Effects of compounds on PMA-induced MMP9 expression in U937 cells. U937 cells are pretreated with compounds described herein for 1 hr, followed by PMA (50 ng/ml) treatment for 48 hrs. After 48 hrs supernatants are collected for zymography. MMP9 enzyme activity is measured by gelatin zymography. Data are expressed as fold changes against positive control treated with PMA only. Values represent means of three experiments±SEM.

[1] = type: cell-based; conditions: test concentration not given
Experimental: The human monocytic cell line U937 and the human type II alveolar epithelial carcinoma cell line A549 were obtained from the American Type Culture Collection (ATCC, Rockville, Md.). PBMCs from COPD patients were obtained in Brompton hospital and separated by AccuSPIN (Sigma-Aldrich, Poole, UK). Cells were cultured in complete growth medium (Sigma-Aldrich) (RPMI 1640 for U937, PBMCs, and Dulbecco's modified essential medium (DMEM) for A549) supplemented with 10% fetal bovine serum (FBS) and 1% L-glutamine at 37° C. in a humidified atmosphere with 5% CO2. U937 were differentiated into an adherent macrophage-like morphology by exposure to PMA (50 or 100 ng/ml) for 48 hrs in complete growth medium. Cell viability was assessed microscopically by trypan blue staining. Cell toxicity was determined by MTT assay as needed. This study was approved by the ethics committee of the Royal Brompton Hospitals, and all subjects gave written informed consent.

H. influenzae ATCC 49247 = assay: MIC; type: cell-based
K. pneumonia 13883 = assay: MIC; type: cell-based; conditions: in µg/mL
E. coli ATCC 25922 = assay: MIC; type: cell-based; conditions: in µg/mL
[2] = tested on: S. typhimurium ATCC 14028; assay: MIC; type: cell-based; conditions: in µg/mL
S. pneumoniae ATCC 49619 = assay: MIC; type: cell-based
[3] = tested on: S. aureus ATCC 29213 (MSSA) MLS-S; assay: MIC; type: cell-based
S. aureus MRSA 33591 = assay: MIC; type: cell-based
S. pyogenes ATCC 19615 = assay: MIC; type: cell-based; conditions: in µg/mL
P. aeruginosa ATCC 27853 = assay: MIC; type: cell-based
[4] = tested on: N. gonorrhoeae ATCC 49226; assay: MIC; type: cell-based; set-up: unit not given beside the values
E. faecium ATCC 19434 = assay: MIC; type: cell-based
Akt = assay: H2O2-induced phosphorylation of Akt in PMA-differentiated U937 cells (western blot); type: cell-based, human; conditions: PMA-differentiated U937; H2O2 1 mM 30 min
Experimental: Cell Lysis and Western Blotting. Whole cell protein extracts are prepared using modified RIPA buffer (50 mM Tris HCL pH 7.4, 0.5% NP-40, 0.25% Na-deoxycholate, 150 mM NaCl with freshly added complete protease (Roche). Phosphatase inhibitor (Active Motif) is also added when required. Protein concentration is determined using the Bio-Rad Protein Assay (Bio-Rad). Proteins are separated by SDS-PAGE under denaturing conditions, and electrotransferred to a nitrocellulose membrane (Amersham Biosciences, Amersham, U.K.) (Western blotting). The membranes are blocked in TBS containing 0.05% Tween 20 and 5% non-fat dried milk, and then incubated with anti-pAkt or Akt antibody followed by an horse radish peroxidase-conjugated secondary antibody (Dako UK Ltd., Ely, UK). Bound antibodies are visualized by ECL Plus (GE Healthcare UK Ltd., Little Chalfont, UK). The band density is calculated by densitometry (UVP Bioimaging Systems, Cambridge, UK) using Labworks software (Ultra-Violet Products, Cambridge, UK).
Effects of compounds on H2O2-induced phosphorylation of Akt in PMA-differentiated U937 cells. PMA-differentiated macrophage-like cells are pretreated with compounds described herein for 20 min. After H2O2 (1 mM) stimulation for 30 min, cells are lysed. Phosphorylation levels of Akt are measured by western blot. Data are calculated relative to total protein, and expressed as fold changes against positive control treated with H2O2 only. Values represent means of three or four experiments±SEM.

Row | Compound | restoration of H2O2-reduced HDAC activity (%) (HDAC activity) | IL-8 inhibition (%) (IL-8) | TNFα inhibition (%) (TNFα) | MMP9 inhibition (%) (MMP9) | Cell Toxicity (% cell death) [1] [%] | MIC H. influenzae ATCC 49247 (H. influenzae ATCC 49247) [µg/mL] | MIC K. pneumonia 13883 (K. pneumonia 13883) | MIC E. coli ATCC 25922 (E. coli ATCC 25922) | MIC S. typhimurium ATCC 14028 [2] | MIC S. pneumoniae ATCC 49619 (S. pneumoniae ATCC 49619) [µg/mL] | MIC S. aureus ATCC 29213 (MSSA) MLS-S [3] [µg/mL] | MIC S. aureus MRSA 33591 (S. aureus MRSA 33591) [µg/mL] | MIC S. pyogenes ATCC 19615 (S. pyogenes ATCC 19615) | MIC P. aeruginosa ATCC 27853 (P. aeruginosa ATCC 27853) [µg/mL] | MIC N. gonorrhoeae ATCC 49226 [4] | MIC E. faecium ATCC 19434 (E. faecium ATCC 19434) [µg/mL] | further results
1 | CCC1OC(=O)C(C)C(OC2CC(C)(OC)C(OC(C)=O)C(C)O2)C(C)C(OC2OC(C)CC(N(C)C)C2O)C(C)(OC)CC(C)C(=O)C(C)C2N(CCCCn3cc(CN(C)C)nn3)C(=O)OC12C (centres unmarked) [Example 24] | 85% | 60 | 6 | 11% | −3 | 64 (≈ 64.3 µM) |  |  |  |  |  |  |  |  |  |  | 
2 | CCC1OC(=O)C(C)C(OC2CC(C)(OC)C(OC(C)=O)C(C)O2)C(C)C(OC2OC(C)CC(N(C)C)C2O)C(C)(OC)CC(C)C(=O)C(C)C2N(CCCCn3cc(CO)nn3)C(=O)OC12C (centres unmarked) [Example 25] | 72 (63) % | 26 | 15 | 10% | −8 | 4 (≈ 4.13 µM) |  |  |  |  |  |  |  |  |  |  | 
3 | CC[C@H]1OC(=O)[C@H](C)C(=O)[C@H](C)[C@@H](O[C@@H]2O[C@H](C)C[C@H](N(C)C)[C@H]2O)[C@@](C)(OC)C[C@@H](C)CN(C(=O)CCCn2cc(-c3ccc(Br)cc3)nn2)[C@H](C)[C@@H](O)[C@]1(C)O [Example 41] | 14% | 54 | 45 | 39 (41) % | 8 | > 64 | >64 | >64 | >64 | 32 (≈ 36.3 µM) | 64 (≈ 72.7 µM) | > 64 | 64 | > 64 | 64 | 64 (≈ 72.7 µM) | 
4 | CCC1OC(=O)C(C)C(OC2CC(C)(OC)C(O)C(C)O2)C(C)C(OC2OC(C)CC(N(C)C)C2O)C(C)(O)CC(C)CN(C)C(C)C2OC(=O)OC12C (centres unmarked) [Example 42] | 104 (79) % | −27 | 8 | −2% | −8 | 4 (≈ 5.16 µM) | 8-32 | 8-32 | 8-16 | ≤ 0.125 | 1 (≈ 1.29 µM) | > 64 | ≤0.125 | > 64 | ≤0.125 | 8 (≈ 10.3 µM) | 
5 | CC[C@H]1OC(=O)[C@H](C)C(=O)[C@H](C)[C@@H](O[C@@H]2O[C@H](C)C[C@H](N(C)C)[C@H]2O)[C@](C)(OC)C[C@@H](C)C(=O)[C@H](C)[C@H]2N(CCCCn3cnc(-c4cccnc4)c3)C(=O)O[C@]12C [TEL, telithromycin, reference compound] |  |  |  |  |  |  |  |  |  |  |  |  |  |  |  |  | restoration of HDAC activity compared with Example 33 (HDAC activity; PMA-differentiated U937, H2O2 200 μM 4 hrs): only at much higher doses than Example 33; HDAC activity reached compared with untreated controls (HDAC activity; PMA-differentiated U937, H2O2 200 μM, comparators at highest doses tested): only restore HDAC activity to levels comparable to untreated controls; inhibition of Akt phosphorylation compared with Example 33 (Akt): only at much higher concentrations than Example 33; inhibition of LPS-induced IL-8 release compared with Example 33 (IL-8; LPS 100 ng/ml 4 hrs): did not show any inhibition at any concentration tested; IC50 (TNFα; Homo sapiens, U-937, LPS-induced TNFα release, PMA-differentiated U937, NA = inactive): 231 ± 37 µM; inhibition of LPS-induced TNFα release compared with Example 33 (TNFα; LPS 100 ng/ml 4 hrs): at higher concentrations than Example 33
